# Laboratory results from article PMC5341572, “Self-Assembly and Anti-Amyloid Cytotoxicity Activity of Amyloid beta Peptide Derivatives” (Scientific Reports, 2017).
# Values joined by “and” are separate entries in the source; they are usually repeats but may differ in a detail not shown here. Equal entries are not always repeated. “Also recorded” adds a separate entry of the source.
# Legend:
# [1] = ESI mass spectrometry of peptide oligomerisation with and without HFIP; format: physicochemical
# Procedure: Samples were diluted to 0.029 wt % peptide in both H2O and HFIP:H2O (1:9; v/v). ESI mass spectra were acquired in positive ion mode on a Synapt G2-Si instrument (Waters Corporation, Wilmslow, UK). The employed Z-spray ESI source (Waters Corporation, Wilmslow, UK) was operated at 1.8 kV and the ESI sample solutions were infused at 10 μL/min using a KD Scientific syringe pump (KD Scientific Inc., Holliston, USA). The desolvation and source temperature were 150 °C and 80 °C, respectively, and the cone voltage was set to 40 V. ESI mass spectra were acquired in triplicate in sensitivity mode with the exception of higher resolution mass spectra, which were acquired once in resolution mode with ion mobility separation enabled. For the latter, wave velocity and wave height were set to 650 m/s and 40 V, respectively, and the helium and nitrogen flow rates were 180 and 90 mL/min, respectively. The acquired data was converted to mzML format using the msconvert tool from the ProteoWizard software package. In-house developed software based on the pymzML software library[62] was used to extract the integrated isotopomer signal intensities of interest from the converted data files. The integrated ion signal intensities of the monomer (SM) and all oligomers (SO) were summed for each acquired spectrum to determine the total ion signal intensity of the analysed peptide species (ST):
# The relative extent of oligomerisation (EO) was determined by dividing the integrated ion signal intensities of the oligomers (SO) by the total ion signal intensity of the analysed peptide (ST): […]
# [2] = tested on: primary rat cortical neurons; assay: MTS neurotoxicity assay with primary neurons; format: cell-based; conditions: final Aβ 20 μM, 20 h
# Procedure: Neuronal cultures were obtained from E16 rat embryos as described[63] with modifications. Briefly, brain cortical tissue was dissected free of meninges and suspended in 0.5 ml of Ca^2+ and Mg^2+ –free Hank’s balanced solution (Gibco). Tissue was then incubated with 4 ml of 0.25% trypsin in a 37 °C water bath for 20 min with agitation. After digestion, tissue was centrifuged at 1000 rpm for 2 min, suspended in DMEM (Gibco) containing 10% fetal calf serum (FCS) (Internegocios) and incubated at 37 °C for 10 min. The pellet was washed with DMEM 10% FCS and allowed to rest for 10 min. Medium was replaced with 1 ml Neurobasal medium (Gibco) and triturated with a 10 ml plastic pipette. […]
# Aliquots were dried under a gentle stream of N2 and re-suspended in 20 mM Tris-HCl, pH 7.4, containing 50 mM NaCl (working buffer). […] Cell viability was measured using a (3-(4, 5-dimethylthiazol-2-yl)-5-(3-carboxymethoxyphenyl)-2-(4-sulfophenyl)-2H-tetrazolium) (MTS) reduction assay. Twenty μl of MTS solution containing phenazine ethyl sulfate were added to wells, incubated for 1 h and absorbance was measured at 490 nm. Viability was expressed as the O.D. relative to neurons treated with working buffer alone. […] Data of three MTS assays were analyzed by one-way ANOVA and Bonferroni post hoc test with Graph Pad Prism v. […]
# Aβ(1–42) = molecular target: T1, Aβ(1–42) (Homo sapiens, UniProt P05067); assay: CD spectroscopy of Aβ(1–42) secondary structure on addition of peptide; conditions: Aβ(1–42):peptide molar ratio 1:1.2 for peptide 1 and 1:1.6 for peptide 2; Tris buffer pH 7.4
# T1 construct: purchased American Peptide Inc. (Sunnyvale, USA)
# Procedure: HFIP was then evaporated under a slow stream of N2.
# CD spectra were recorded using a Chirascan spectropolarimeter (Applied Photophysics, UK). Peptide solutions were placed in a cover slip cuvette (1 × 10^−2 or 0.1 mm thick), spectra presented being with absorbance A < 2 at any measured point with a 0.5 nm step, 1 nm bandwidth, and 1 s collection time per step. The CD signal from the background was subtracted from the CD data of the sample solutions. […] CD experiments were performed using a Quartz cuvette with 1mm path length.
# [3] = ANS fluorescence assay for critical aggregation concentration (cac); format: physicochemical; conditions: discontinuity in concentration-dependent ANS fluorescence; 74 μM ANS solution, λex 356 nm, spectra 400-670 nm
# Procedure: 8-anilo-1-naphthalenesulfonic acid (ANS) and thioflavin T (ThT) fluorescence were used to locate the critical aggregation concentration (cac). Spectra were recorded with a Varian Cary Eclipse fluorescence spectrometer with samples in 4 mm inner width quartz cuvettes. The ANS fluorophore is a probe sensitive to the hydrophobicity of its surrounding environment, making it suitable to determine the cac. ANS assays were performed measuring spectra from 400 to 670 nm (λex = 356 nm), using a 74 μM ANS solution to solubilize the peptide. ThT fluorescence depends on the formation of amyloid-like structures[36][37] (β-sheet fibrils) and is used for amyloid fibril-forming peptides. For the ThT assay, the spectra were recorded from 460 to 600 nm using an excitation wavelength of λex = 440 nm, and the peptide was dissolved in a 5.0 × 10^−3 wt % ThT solution.
# [4] = tested on: SH-SY5Y neuroblastoma cells; assay: MTS neurotoxicity assay with SH-SY5Y cells; format: cell-based; conditions: 24 h
# Procedure: SH-SY5Y neuroblastoma cells were maintained in a 1:1 ratio of Ham’s F12 and Dulbecco’s Modified Eagle Medium with 10% foetal calf serum and penicillin/streptomycin at 37 °C and 5% CO2. At 85–95% confluence the cells were detached from their growth substrate using trypsin and the growth medium was removed following centrifugation of the cells at 500xg for five minutes. The cells were re-suspended in a serum-free medium (Optimem with penicillin/streptomycin) and distributed at 20,000 cells per well in a 96-well plate then incubated at 37 °C, 5% CO2 for a further 24 hours. […] Cells were incubated for a further 24 hours as above and then assayed for cell survival using an MTS based assay (CellTiter 96 AQueous One Solution Cell Proliferation Assay from Promega).
# [5] = peptide to Aβ(1–42) ratio 1:2 (2.5 μM peptide, 5 μM Aβ)
# [6] = peptide to Aβ(1–42) ratio 1:5 (1 μM peptide, 5 μM Aβ)
# [7] = peptide to Aβ(1–42) ratio 1:20 (0.25 μM peptide, 5 μM Aβ)
# T1 sequence (P05067 672-713): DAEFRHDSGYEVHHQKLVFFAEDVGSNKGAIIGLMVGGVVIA
SMILES,aggregation state n of self-assemblies (oligomers) seen by ESI MS ([1]; 0.029 wt% peptide),"relative extent of oligomerisation (Eo)H2O ([1]; 0.029 wt% peptide in H2O, positive-ion ESI MS, oligomer signal / total peptide signal, spectra in triplicate)","relative extent of oligomerisation (Eo)HFIP ([1]; 0.029 wt% peptide in HFIP:H2O (1:9 v/v), positive-ion ESI MS, oligomer signal / total peptide signal, spectra in triplicate)","effect on viability of Aβ(1–42)-treated neurons ([2]; Aβ:peptide 1:1 (equimolarity), co-incubated 72 h with 100 μM Aβ(1–42))","improvement of viability of Aβ(1–42)-treated neurons ([2]; Aβ:peptide molar ratio 1:1.5, co-incubated 72 h, p < 0.05)",β-sheet minimum (216 nm) in CD spectrum of Aβ(1–42) upon addition of peptide (Aβ(1–42)),"critical aggregation concentration (cac), ANS assay (hydrophobic collapse) [3]","effect on Aβ(1–42) cytotoxicity, in words [4, 5]","effect on Aβ(1–42) cytotoxicity, in words [4, 6]","effect on Aβ(1–42) cytotoxicity, in words [4, 7]","effect of peptide alone on cells, in words ([4]; 2.5 μM peptide in the absence of Aβ(1–42))","effect on Aβ(1–42) cytotoxicity, in words ([4]; peptide to Aβ(1–42) ratio 1:2 (2.5 μM peptide, 5 μM Aβ), listed as Peptide 2)"
"CC(C)C[C@H](NC(=O)[C@@H](N)CCCCN)C(=O)N[C@H](C(=O)N[C@@H](Cc1ccccc1)C(=O)N[C@@H](Cc1ccccc1)C(N)=O)C(C)C [peptide 1, NH2-KLVFF-CONH2]",≤ 7,0.040 ± 0.002,0.046 ± 0.002,no effect,~ 70%,significantly reduced,1.00 ± 5 × 10^−2 wt% and ~ 1 wt%,block the cytotoxic effect,not very effective; also recorded: no protective effect,not very effective; also recorded: no protective effect,–,–
"CC(C)C[C@H](NC(=O)[C@@H](N)CCCCNC(=O)OC(C)(C)C)C(=O)N[C@H](C(=O)N[C@@H](Cc1ccccc1)C(=O)N[C@@H](Cc1ccccc1)C(N)=O)C(C)C [peptide 2, NH2-K(Boc)LVFF-CONH2]",–,–,–,–,–,–,–,block the cytotoxic effect,positive effect,positive effect,negative effect,rescues the cells
